Experimental data published in US6444656B1, “Antiviral phosphonate nucleotides” (BioChem Pharma, Inc., priority 1992, dated 2002).

Columns and labels:
Format in all cases: cell-based
[1] = test system: HIV-1; test: Anti-HIV activity: inhibition of HIV-1 replication in infected established cell lines; settings: laboratory strains of HIV-1, established cell lines, 4 to 6 days post-infection
Experimental: (§1) Laboratory strains of HIV-1, were used to infect established cell lines by using a specific multiplicity of infection (MOI) of the virus for 1 hour at 37° C. prior to washing the cells and re-suspension in medium containing increasing concentrations of drug (or test compound). At 4 to 6 days post-infection, drug-treated and control wells are analyzed for an HIV-1 induced cytopathic effect and/or for the presence of viral reverse transcriptase (RT) or viral p24 antigen in the culture medium (Buckheit and Swanstrom (1991) AIDS Res. Human Retroviruses 7:295-302; Ojwang, et al (1994) J. Acquired Immune Deficiency Syndrome 7:560-570; Ojwang, J. O., et al (1995) Antimicrobial Agents and Chemotherapy. 39:2426-2435 and Rando et al (1995) J. Biol. Chem. 270:1754-1760).

[2] = test system: established cell lines; test: Cytotoxicity (CCTD50) reported with the anti-HIV-1 assay; settings: cytotoxicity Table 1 (HIV-1 assay)
Experimental: as §1

[3] = test system: HBV; test: Anti-HBV activity: inhibition of HBV replication in 2.2.15 cells; settings: twelve days postadministration
Experimental: (§2) The 2.2.15 cell line derived from HepG2 cells transfected with episomal HBV DNA (Sells et al (1987) Proc. Natl. Acad. Sci. USA 84:1005-1009 and (1988) J. Virol. 62:2836-2844) was used. The assay was performed basically as described by Ojwang et al. (1995) Antimicrobial Agents and Chemotherapy 39:2570-2573 ). The 2.2.15 cells are seeded (10^5 cells per well) in 300 ul of minimal essential medium supplemented with 10% fetal bovine serum, using 24-well plates pre-coated with 150 ul of 0.1 mg of collagen (rat tail) type I per ml reconstituted in 0.02 M acetic acid. The collagen treatment helped the cells 10 disperse evenly over the culture plate. Once the cells reach confluency (approximately 1 day), the culture medium is replaced every 2 days with medium containing various concentrations of the indicated test compound. In this experiment, the nucleosides 2′,3′-dideoxy-3′-thiacytidine (3TC) or 2′,3′-dideoxycytidine (ddC) are used as positive controls (Ojwang et al. (1995)). Twelve days postadministration of the test compounds, cells are harvested and DNA is prepared as described by Fennewald et al. ( (1995) Antiviral Res. 26:37-54.). At the same time, the culture medium is saved and analyzed for the presence of extracellular viral nucleic acids.
The integrated and episomal HBV DNAs are easily separated by using agarose gel electrophoresis which allows for the differential quantification of the two species of HBV DNA. […] As a molecular probe, a subgenomic fragment of the HBV DNA is cloned into the pCRII TA cloning vector (Invitrogen) plasmid between the two EcoR1 sites. The subgenomic HBV DNA fragment is obtained by using the PCR technique to amplify a portion of the HBV genome (nucleotide positions 2134 to 143). Total DNA isolated from 2.2.15 cells is used as the PCR template with primer sets corresponding to nucleotide positions 2134 to 2151 (forward) and 143 to 126 (reverse). […] In addition, the filters are also exposed to a photoimaging plate and quantitated, using a Fujix Bioimaging Analyzer System BAS 1000 (or similar) instrument.

[4] = Cytotoxicity (CC50) reported with the anti-HBV assay; settings: human; cytotoxicity of Table 2 (HBV assay, 2.2.15 cells)
Experimental: as §2

[5] = test system: 2.2.15 cell line derived from HepG2 cells; test: as above; settings: cytotoxicity of Table 2 (HBV assay, 2.2.15 cells)
Experimental: as §2

Compound | EC50 ([1]; Human immunodeficiency virus 1, read-out: EC50 (μg/ml), inhibition of HIV-1 replication) | CCTD50 [2] | EC50 ([3]; Hepatitis B virus, read-out: EC50 (μg/ml), inhibition of HBV replication) | CC50 [4] | EC50 (μg/ml), inhibition of HIV-1 replication [1] | EC50 (μg/ml), inhibition of HBV replication [3] | CC50 [5]
Nc1nc(O)c2ncn(C[C@H]3O[C@@H](P(=O)(O)O)C[C@@H]3F)c2n1 [Compound 23] | > 10 µg/mL | >10 µg/mL | > 30 µg/mL | > 300 µg/mL | – | – | –
Nc1nc2c(nc(Cl)n2CC2CCC(P(=O)(Oc3ccccc3)Oc3ccccc3)O2)c(=O)[nH]1 (stereo not drawn) [Example 16, [5-(2-Amino-8-chloro-6-oxo-1,6-dihydro-purin-9-ylmethyl)-tetrahydro-furan-2-yl]-phosphonic Acid Diphenyl Ester] | – | >10 µg/mL | – | – | 0.46 µg/mL | 11 µg/mL | >300 µg/mL
Ammonium; 5-(2-Amino-6-oxo-1,6-dihydro-purin-9-ylmethyl)-3,4-dihydroxy-tetrahydro-furan-2-phosphonate [Example 10] | – | >10 µg/mL | – | – | 5 µg/mL | 0.295 µg/mL | >300 µg/mL
